# Tests used:
# Format in all cases: functional
# Proteus mirabilis [1] = experiment: Antibacterial activity against Proteus mirabilis M 29 mutant after 18 hrs by Etest method
# Proteus mirabilis [2] = experiment: Antibacterial activity against Proteus mirabilis NP43 after 18 hrs by Etest method
# Escherichia coli = experiment: Antibacterial activity against Escherichia coli 10418 after 18 hrs by Etest method
# Proteus mirabilis [3] = experiment: Antibacterial activity against Proteus mirabilis M 35 mutant after 18 hrs by Etest method
# Proteus mirabilis [4] = experiment: Antibacterial activity against Proteus mirabilis M 40 mutant after 18 hrs by Etest method
# Proteus mirabilis [5] = experiment: Antibacterial activity against Proteus mirabilis NP55 after 18 hrs by Etest method
# Proteus mirabilis [6] = experiment: Antibacterial activity against Proteus mirabilis M 19 mutant after 18 hrs by Etest method
# Proteus mirabilis [7] = experiment: Antibacterial activity against Proteus mirabilis M 26 mutant after 18 hrs by Etest method
# Proteus mirabilis [8] = experiment: Antibacterial activity against Proteus mirabilis M 31 mutant after 18 hrs by Etest method
# Proteus mirabilis [9] = experiment: Antibacterial activity against Proteus mirabilis M 23 mutant after 18 hrs by Etest method
# Proteus mirabilis [10] = experiment: Antibacterial activity against Proteus mirabilis M 55 mutant after 18 hrs by Etest method
# Proteus mirabilis [11] = experiment: Antibacterial activity against Proteus mirabilis M 44 mutant after 18 hrs by Etest method
# Proteus mirabilis [12] = experiment: Antibacterial activity against Proteus mirabilis M 48 mutant after 18 hrs by Etest method
# Proteus mirabilis [13] = experiment: Antibacterial activity against Proteus mirabilis NP14 after 18 hrs by Etest method
# Proteus mirabilis [14] = experiment: Antibacterial activity against Proteus mirabilis M 42 mutant after 18 hrs by Etest method
# Proteus mirabilis [15] = experiment: Antibacterial activity against Proteus mirabilis M 21 mutant after 18 hrs by Etest method
# Proteus mirabilis [16] = experiment: Antibacterial activity against Proteus mirabilis M 17 mutant after 18 hrs by Etest method
# Proteus mirabilis [17] = experiment: Antibacterial activity against Proteus mirabilis NP37 after 18 hrs by Etest method
# Proteus mirabilis [18] = experiment: Antibacterial activity against Proteus mirabilis M 12 mutant after 18 hrs by Etest method
# Proteus mirabilis [19] = experiment: Antibacterial activity against Proteus mirabilis B2 after 18 hrs by Etest method
# Proteus mirabilis [20] = experiment: Effect on catheter blockage in Bladder model inoculated with Proteus mirabilis M 48 mutant
# Proteus mirabilis [21] = experiment: Effect on pH of residual urine at time of catheter blockage in Bladder model inoculated with Proteus mirabilis M 48 mutant
# Proteus mirabilis [22] = experiment: Effect on catheter blockage in Bladder model inoculated with wild-type Proteus mirabilis B2
# Proteus mirabilis [23] = experiment: Effect on viable cells in urine at time of catheter blockage in Bladder model inoculated with Proteus mirabilis M 48 mutant
# Proteus mirabilis [24] = experiment: Effect on viable cells in urine at time of catheter blockage in Bladder model inoculated with Proteus mirabilis M 55 mutant
# Proteus mirabilis [25] = experiment: Effect on pH of residual urine at time of catheter blockage in Bladder model inoculated with wild-type Proteus mirabilis B2
# Proteus mirabilis [26] = experiment: Effect on viable cells in urine at time of catheter blockage in Bladder model inoculated with wild-type Proteus mirabilis B2
# Proteus mirabilis [27] = experiment: Effect on catheter blockage in Bladder model inoculated with Proteus mirabilis M 55 mutant
# Proteus mirabilis [28] = experiment: Effect on pH of residual urine at time of catheter blockage in Bladder model inoculated with Proteus mirabilis M 55 mutant
Compound,"MIC (Proteus mirabilis [1]; M 29, 18 h)","MIC (Proteus mirabilis [2]; NP43, 18 h)","MIC (Escherichia coli; Escherichia coli, 10418, 18 h)","MIC (Proteus mirabilis [3]; M 35, 18 h)","MIC (Proteus mirabilis [4]; M 40, 18 h)","MIC (Proteus mirabilis [5]; NP55, 18 h)","MIC (Proteus mirabilis [6]; M 19, 18 h)","MIC (Proteus mirabilis [7]; M 26, 18 h)","MIC (Proteus mirabilis [8]; M 31, 18 h)","MIC (Proteus mirabilis [9]; M 23, 18 h)","MIC (Proteus mirabilis [10]; M 55, 18 h)","MIC (Proteus mirabilis [11]; M 44, 18 h)","MIC (Proteus mirabilis [12]; M 48, 18 h)","MIC (Proteus mirabilis [13]; NP14, 18 h)","MIC (Proteus mirabilis [14]; M 42, 18 h)","MIC (Proteus mirabilis [15]; M 21, 18 h)","MIC (Proteus mirabilis [16]; M 17, 18 h)","MIC (Proteus mirabilis [17]; NP37, 18 h)","MIC (Proteus mirabilis [18]; M 12, 18 h)","MIC (Proteus mirabilis [19]; B2, 18 h)",further results
CC1(C)S[C@@H]2[C@H](NC(=O)[C@H](N)c3ccccc3)C(=O)N2[C@H]1C(=O)O [AMPICILLIN],> 256 µg/mL,0.4 µg/mL,0.5 µg/mL,> 256 µg/mL,> 256 µg/mL,> 256 µg/mL,12 µg/mL,> 256 µg/mL,> 256 µg/mL,12 µg/mL,> 256 µg/mL,> 256 µg/mL,> 256 µg/mL,16 µg/mL,> 256 µg/mL,16 µg/mL,0.19 µg/mL,> 256 µg/mL,0.13 µg/mL,> 256 µg/mL,–
CC1=C(C(=O)O)N2C(=O)[C@@H](NC(=O)[C@H](N)c3ccccc3)[C@H]2SC1 [CEPHALEXIN ANHYDROUS],2 µg/mL,4 µg/mL,2 µg/mL,3 µg/mL,3 µg/mL,4 µg/mL,4 µg/mL,3 µg/mL,3 µg/mL,3 µg/mL,4 µg/mL,4 µg/mL,3 µg/mL,3 µg/mL,4 µg/mL,3 µg/mL,1 µg/mL,4 µg/mL,1.5 µg/mL,6 µg/mL,–
O=C(O)c1cn(C2CC2)c2cc(N3CCNCC3)c(F)cc2c1=O [CIPROFLOXACIN],0.008 µg/mL,0.01 µg/mL,–,0.016 µg/mL,0.012 µg/mL,0.016 µg/mL,0.05 µg/mL,0.012 µg/mL,0.008 µg/mL,0.05 µg/mL,0.02 µg/mL,0.03 µg/mL,0.02 µg/mL,0.06 µg/mL,0.016 µg/mL,0.05 µg/mL,0.006 µg/mL,0.02 µg/mL,0.006 µg/mL,0.02 µg/mL,–
CCn1cc(C(=O)O)c(=O)c2ccc(C)nc21 [NALIDIXIC ACID],2 µg/mL,2 µg/mL,0.38 µg/mL,2 µg/mL,1.5 µg/mL,3 µg/mL,2 µg/mL,1.5 µg/mL,1.5 µg/mL,2 µg/mL,1.5 µg/mL,1.5 µg/mL,1.5 µg/mL,3 µg/mL,2 µg/mL,3 µg/mL,2 µg/mL,4 µg/mL,1.5 µg/mL,2 µg/mL,–
O=C1CN(/N=C/c2ccc([N+](=O)[O-])o2)C(=O)N1 [NITROFURANTOIN],16 µg/mL,48 µg/mL,2 µg/mL,32 µg/mL,64 µg/mL,64 µg/mL,32 µg/mL,24 µg/mL,24 µg/mL,32 µg/mL,48 µg/mL,32 µg/mL,24 µg/mL,32 µg/mL,48 µg/mL,48 µg/mL,12 µg/mL,24 µg/mL,12 µg/mL,64 µg/mL,–
CCn1cc(C(=O)O)c(=O)c2cc(F)c(N3CCNCC3)cc21 [NORFLOXACIN],0.03 µg/mL,0.05 µg/mL,0.02 µg/mL,0.03 µg/mL,0.03 µg/mL,0.05 µg/mL,0.19 µg/mL,0.03 µg/mL,0.02 µg/mL,0.19 µg/mL,0.05 µg/mL,0.05 µg/mL,0.05 µg/mL,0.25 µg/mL,0.03 µg/mL,0.19 µg/mL,0.02 µg/mL,0.05 µg/mL,0.02 µg/mL,0.05 µg/mL,–
Oc1cc(Cl)ccc1Oc1ccc(Cl)cc1Cl [TRICLOSAN],10 µg/mL,0.2 µg/mL,0.2 µg/mL,40 µg/mL,40 µg/mL,0.2 µg/mL,40 µg/mL,20 µg/mL,5 µg/mL,5 µg/mL,40 µg/mL,40 µg/mL,2 µg/mL,0.2 µg/mL,0.8 µg/mL,5 µg/mL,40 µg/mL,0.1 µg/mL,40 µg/mL,0.2 µg/mL,Time (Proteus mirabilis [20]): >48 h; pH (Proteus mirabilis [21]): 6.51; Time (Proteus mirabilis [22]): >48 h; CFU/ml (Proteus mirabilis [23]): 5.44 ×10⁴ /ml; CFU/ml (Proteus mirabilis [24]): 4.2 ×10⁷ /ml; pH (Proteus mirabilis [25]): 6.28; CFU/ml (Proteus mirabilis [26]): 2.07 ×10³ /ml; Time (Proteus mirabilis [27]): 44 h; pH (Proteus mirabilis [28]): 8.84
COc1cc(Cc2cnc(N)nc2N)cc(OC)c1OC [TRIMETHOPRIM],> 32 µg/mL,0.4 µg/mL,0.03 µg/mL,> 32 µg/mL,> 32 µg/mL,> 32 µg/mL,> 32 µg/mL,> 32 µg/mL,> 32 µg/mL,> 32 µg/mL,> 32 µg/mL,> 32 µg/mL,> 32 µg/mL,> 32 µg/mL,> 32 µg/mL,> 32 µg/mL,0.25 µg/mL,> 32 µg/mL,0.19 µg/mL,> 32 µg/mL,–
GENTAMICIN,–,–,–,–,–,–,–,–,–,–,–,–,–,–,–,–,–,–,–,–,MIC (Proteus mirabilis [1]): 0.19 µg/mL; MIC (Proteus mirabilis [2]): 0.1 µg/mL; MIC (Escherichia coli): 0.09 µg/mL; MIC (Proteus mirabilis [3]): 0.25 µg/mL; MIC (Proteus mirabilis [4]): 0.13 µg/mL; MIC (Proteus mirabilis [5]): 0.1 µg/mL; MIC (Proteus mirabilis [6]): 0.13 µg/mL; MIC (Proteus mirabilis [7]): 0.13 µg/mL; MIC (Proteus mirabilis [8]): 0.13 µg/mL; MIC (Proteus mirabilis [9]): 0.09 µg/mL; MIC (Proteus mirabilis [10]): 0.38 µg/mL; MIC (Proteus mirabilis [11]): 0.38 µg/mL; MIC (Proteus mirabilis [12]): 0.25 µg/mL; MIC (Proteus mirabilis [13]): 0.13 µg/mL; MIC (Proteus mirabilis [14]): 0.25 µg/mL; MIC (Proteus mirabilis [15]): 0.13 µg/mL; MIC (Proteus mirabilis [16]): 0.06 µg/mL; MIC (Proteus mirabilis [17]): 0.38 µg/mL; MIC (Proteus mirabilis [18]): 0.06 µg/mL; MIC (Proteus mirabilis [19]): 0.38 µg/mL

# — ChEMBL document CHEMBL1255267, “Reduced Susceptibility of Proteus mirabilis to triclosan” (2008)
